Species: Rattus norvegicus
Experiment: DrugMatrix - Regimen: Daily Repeat
Type: toxicity, organism-based, Sprague-Dawley
Set-up: regimen Daily Repeat, gender Male, age 6-8 weeks
Conditions: in vivo, sc, 3 mg/kg, route subcutaneous, dose level Low, […]; for ABSOLUTE BASOPHIL / ABSOLUTE EOSINOPHIL / ABSOLUTE LYMPHOCYTE / ABSOLUTE MONOCYTE / ABSOLUTE SEGMENTED NEUTROPHIL / BASOPHIL / EOSINOPHIL / ERYTHROCYTE COUNT / HEMATOCRIT / HEMOGLOBIN / LEUKOCYTE COUNT / LYMPHOCYTE / MEAN CORPUSCULAR HEMOGLOBIN / MEAN CORPUSCULAR VOLUME / MONOCYTE / NEUTROPHIL / NUCLEATED RED BLOOD CELLS / PLATELET COUNT: tissue Blood; for ALANINE AMINOTRANSFERASE / ALBUMIN / ALKALINE PHOSPHATASE / ASPARTATE AMINOTRANSFERASE / BLOOD UREA NITROGEN / CARBON DIOXIDE / CHLORIDE / CHOLESTEROL / CREATINE PHOSPHOKINASE / CREATININE / GLUCOSE / LACTATE DEHYDROGENASE / LIPASE / PHOSPHORUS / POTASSIUM / SODIUM / TOTAL BILIRUBIN / TOTAL PROTEIN / URIC ACID: tissue Plasma

CC(C)(C)CC(C)(C)c1ccc(OCCOCC[N+](C)(C)Cc2ccccc2)cc1.[Cl-] [BENZETHONIUM CHLORIDE]
ABSOLUTE BASOPHIL (72 h, time 3 day): 0 CELLS/uL | ABSOLUTE EOSINOPHIL (72 h, time 3 day): 41 CELLS/uL | ABSOLUTE LYMPHOCYTE (72 h, time 3 day): 15440.33 CELLS/uL | ABSOLUTE MONOCYTE (72 h, time 3 day): 415 CELLS/uL | ABSOLUTE SEGMENTED NEUTROPHIL (72 h, time 3 day): 1437 CELLS/uL | BASOPHIL (72 h, time 3 day): 0% | EOSINOPHIL (72 h, time 3 day): 0.33% | ERYTHROCYTE COUNT (72 h, time 3 day): 5.3 x10E6/uL | HEMATOCRIT (72 h, time 3 day): 33.43% | HEMOGLOBIN (72 h, time 3 day): 12.63 G/DL | LEUKOCYTE COUNT (72 h, time 3 day): 17.33 x10E3/uL | LYMPHOCYTE (72 h, time 3 day): 89.33% | MEAN CORPUSCULAR HEMOGLOBIN (72 h, time 3 day): 23.87 pg | MEAN CORPUSCULAR VOLUME (72 h, time 3 day): 63.13 fL | MONOCYTE (72 h, time 3 day): 2.33% | NEUTROPHIL (72 h, time 3 day): 8% | NUCLEATED RED BLOOD CELLS (72 h, time 3 day): 0 /100WBC | PLATELET COUNT (72 h, time 3 day): 1329.67 x10E3/uL | ALANINE AMINOTRANSFERASE (72 h, time 3 day): 45 u/L | ALBUMIN (72 h, time 3 day): 3.7 G/DL | ALKALINE PHOSPHATASE (72 h, time 3 day): 323.67 u/L | ASPARTATE AMINOTRANSFERASE (72 h, time 3 day): 74 u/L | BLOOD UREA NITROGEN (72 h, time 3 day): 15.67 mg/dL | CARBON DIOXIDE (72 h, time 3 day): 28 mmol/L | CHLORIDE (72 h, time 3 day): 101 MEQ/L | CHOLESTEROL (72 h, time 3 day): 83.33 mg/dL | CREATINE PHOSPHOKINASE (72 h, time 3 day): 130.67 u/L | CREATININE (72 h, time 3 day): 0.18 mg/dL | GLUCOSE (72 h, time 3 day): 149.33 mg/dL | LACTATE DEHYDROGENASE (72 h, time 3 day): 78.67 u/L | LIPASE (72 h, time 3 day): 8.67 u/L | PHOSPHORUS (72 h, time 3 day): 11.23 mg/dL | POTASSIUM (72 h, time 3 day): 6.78 MEQ/L | SODIUM (72 h, time 3 day): 142.67 MEQ/L | TOTAL BILIRUBIN (72 h, time 3 day): 0.23 mg/dL | TOTAL PROTEIN (72 h, time 3 day): 5.93 G/DL | URIC ACID (72 h, time 3 day): 1.53 mg/dL | ABSOLUTE BASOPHIL (120 h, time 5 day): 0 CELLS/uL | ABSOLUTE EOSINOPHIL (120 h, time 5 day): 149.33 CELLS/uL | ABSOLUTE LYMPHOCYTE (120 h, time 5 day): 16956.67 CELLS/uL | ABSOLUTE MONOCYTE (120 h, time 5 day): 380.67 CELLS/uL | ABSOLUTE SEGMENTED NEUTROPHIL (120 h, time 5 day): 2446.67 CELLS/uL | BASOPHIL (120 h, time 5 day): 0% | EOSINOPHIL (120 h, time 5 day): 0.67% | ERYTHROCYTE COUNT (120 h, time 5 day): 5.5 x10E6/uL | HEMATOCRIT (120 h, time 5 day): 34.13% | HEMOGLOBIN (120 h, time 5 day): 12.67 G/DL | LEUKOCYTE COUNT (120 h, time 5 day): 19.93 x10E3/uL | LYMPHOCYTE (120 h, time 5 day): 85.33% | MEAN CORPUSCULAR HEMOGLOBIN (120 h, time 5 day): 23 pg | MEAN CORPUSCULAR VOLUME (120 h, time 5 day): 62.03 fL | MONOCYTE (120 h, time 5 day): 2% | NEUTROPHIL (120 h, time 5 day): 12% | NUCLEATED RED BLOOD CELLS (120 h, time 5 day): 0 /100WBC | PLATELET COUNT (120 h, time 5 day): 1520.67 x10E3/uL | ALANINE AMINOTRANSFERASE (120 h, time 5 day): 63 u/L | ALBUMIN (120 h, time 5 day): 3.47 G/DL | ALKALINE PHOSPHATASE (120 h, time 5 day): 275 u/L | ASPARTATE AMINOTRANSFERASE (120 h, time 5 day): 71.67 u/L | BLOOD UREA NITROGEN (120 h, time 5 day): 14.67 mg/dL | CARBON DIOXIDE (120 h, time 5 day): 27.33 mmol/L | CHLORIDE (120 h, time 5 day): 103 MEQ/L | CHOLESTEROL (120 h, time 5 day): 70.67 mg/dL | CREATINE PHOSPHOKINASE (120 h, time 5 day): 560.33 u/L | CREATININE (120 h, time 5 day): 0.23 mg/dL | GLUCOSE (120 h, time 5 day): 152.67 mg/dL | LACTATE DEHYDROGENASE (120 h, time 5 day): 156.67 u/L | LIPASE (120 h, time 5 day): 10 u/L | PHOSPHORUS (120 h, time 5 day): 11.23 mg/dL | POTASSIUM (120 h, time 5 day): 7.21 MEQ/L | SODIUM (120 h, time 5 day): 144.55 MEQ/L | TOTAL BILIRUBIN (120 h, time 5 day): 0.17 mg/dL | TOTAL PROTEIN (120 h, time 5 day): 5.73 G/DL | URIC ACID (120 h, time 5 day): 1.53 mg/dL
